According to ChEMBL document CHEMBL3507680, “University of Dundee, Gates Library screen for HepG2 cell viability”:

Test: Human HepG2 cell viability assay in 384 well format
Assay type: toxicity, cell-based
Design: dose 125 nL, time 70.5 hour; concentration not given beside the values
Conditions: HepG2 cells, read-out: Inhibition

SMILES | cytotoxicity at 70.5 h
Oc1cc(CN2CCCCC2c2cccnc2)nc2c(F)cccc12 (configuration not stated) | -2.95%
CC(C)(C)c1ccc(OCc2nc3c(c(=O)[nH]2)CCNC3)cc1 | -7.79%
CCC(CO)NC(=O)c1cc(COc2ccc(OC)cc2Cl)[nH]n1 (configuration not stated) | -10.5%
COc1ccc(OC)c2c(C)cc(N(C)CCO)nc12 | 16.9%
CCC(C)N(Cc1cnc(OC)nc1)Cc1ccsc1 (configuration not stated) | -3.9%
Clc1cc(N2CCC(N3CCCC3)CC2)nc2[nH]ccc12 | -2.57%
CC(C)C1=NOC(c2nc(-c3cccc(Cl)c3)no2)C1 (configuration not stated) | 8.08%
COc1cccc(C(=O)N2CCc3c(nc(N)[nH]c3=O)C2)c1C | 1.02%
Cn1cc(Cl)c(C(=O)N2CCC(N3CCc4ccccc4C3)CC2)n1 | -6.46%
CCN1CCCC(C)(C(=O)NCc2nncn2CCc2ccccc2)C1 (configuration not stated) | -8.53%
NC1(C(=O)N2CCC(c3cc(-c4ccccc4Cl)n[nH]3)CC2)CCC1 | 46.9%
COc1ccc2cc(C3CN(C(=O)CCNC(C)=O)CCO3)ccc2c1 (configuration not stated) | 2.84%
COc1cccc2c1OCC(C(=O)N(Cc1ccncc1)CC(C)C)C2 (configuration not stated) | 15.1%
c1ccc(CN2CCCC(CNc3ncnc4c3CCNCC4)C2)cc1 (configuration not stated) | -6.09%
CCCc1nc(N(C)CCc2noc(C(C)C)n2)c2cnn(C)c2n1 | 5.48%
CC(C)C(=O)N1CCC(CNc2nc(C(C)C)nc3c2cnn3C)CC1 | -9.27%
COc1ccnc(CN(C)C(=O)CSc2nnc(N)s2)c1 | -5.2%
Cc1nc(N)sc1C(=O)N1CCCC(COc2ccc(F)cc2)C1 (configuration not stated) | -0.394%
CCNC(=O)[C@@H]1C[C@@H](NC(=O)c2ccc(C#N)cc2)CN1CCCSC | 17.5%
CC1(C)CC(C(=O)N2CCC3(CCC(=O)N(C4CC4)C3)CC2)CCO1 (configuration not stated) | -4.55%
O=C(NCCc1csc(-c2cnccn2)n1)c1cnn[nH]1 | 21.3%
O=C(CCN1CCOC(C(F)(F)F)C1)NCc1cccc(Cl)c1 (configuration not stated) | -5.6%
O=C(O)[C@@H]1CN(C(=O)CSCC2CC2)C[C@H]1c1ccccn1 | -1.99%

SMILES | cytotoxicity at 70.5 h
CCCc1ccc(CN2CCC3(CCC(=O)N(CCO)C3)CC2)o1 | -3.93%
FC(F)(F)c1cccc(OC2CCN(Cc3ncc[nH]3)CC2)c1 | -0.255%
O=C1NCCCC12CCN(Cc1ccc(SC3CCCCC3)o1)C2 (configuration not stated) | 5.14%
CC(NC(=O)Cc1cc2c(cc1Cl)OCCO2)c1ccncn1 (configuration not stated) | -2.12%
CCc1nccn1CC(=O)N1C[C@H]2CC[C@@H]1CN(C(=O)N(C)C)C2 | -3.56%
Cn1cc(Cl)c(CN2CCn3nc(C(=O)N4CCCC4)cc3C2)n1 | -4.39%
O=C(C1CNCCO1)N1CCCC(c2ccccc2)(c2ccccc2)C1 (configuration not stated) | -0.462%
N#Cc1cccnc1N1CCCC(CO)(Cc2ccccc2F)C1 (configuration not stated) | -4.89%
CCCC(C)C(=O)N1CCC(c2cc(N3CCOCC3)nc(C)n2)CC1 (configuration not stated) | -1.55%
COc1cccc(-c2cc(NCCO)nc3[nH]ccc23)n1 | -10.9%
CCS(=O)(=O)CCNC1CCN(c2nc3ccc(Cl)cc3s2)CC1 | 4.49%
CC(O)C(=O)N1CCC(c2nccn2Cc2cscn2)CC1 (configuration not stated) | 23.7%
CN1CCC2(CC1)CCN(C(=O)c1onc3ccccc13)C2 | -6.04%
CC(CN1CCCCCC1)NCc1nncn1C1CCCCC1 (configuration not stated) | -6.55%
COCCCC1CCCCN1C(=O)c1ccc(SCCO)cc1 (configuration not stated) | 6.41%
Cc1nnsc1CN(C)C(=O)c1ccc(CSc2nnc[nH]2)o1 | -10.2%
COc1cccc(C(=O)N2C[C@@H](C(=O)O)[C@H](c3ccccc3C)C2)c1 | 6.74%
Cc1cc(N2CCCC(c3[nH]ncc3Cc3ccccc3)C2)nc(N)n1 (configuration not stated) | 11.1%
OC1CCCOC12CCN(c1ncccn1)CC2 (configuration not stated) | 15.7%
Cc1nc(N2CCC3(CCCN(CCO)C3=O)C2)c2sccc2n1 (configuration not stated) | -7.31%
COCc1nc(C2CC2)nn1-c1ccccc1Cl | -2.98%
COc1ccccc1C1CNC(=O)c2nc(-c3cn(C)nc3C)[nH]c2C1 (configuration not stated) | 8.73%
CN(C)CC1(O)CCCN(C(=O)c2ccccc2-n2cncn2)C1 (configuration not stated) | -3.77%

SMILES | cytotoxicity at 70.5 h
CC(=O)NCCNC(=O)C1(N2CCCCC2)Cc2ccccc2C1 | -7.44%
Cc1ccc(C(=O)O)cc1-c1cccc2c1CCNC2 | -21%
Cc1ccc2[nH]c(=O)cc(C(=O)N[C@@H]3C[C@@H](CO)N(C)C3)c2c1 | -14.7%
COCc1nc(C2CC2)nn1-c1cccc(F)c1 | -7.42%
CC(C)c1cc(C2CCN(C(=O)Cn3cnc4ccccc43)CC2)[nH]n1 | 4.36%
COCc1cc(N2CCOC(c3ccc(Cl)c(Cl)c3)C2)ncn1 (configuration not stated) | -12.1%
CCc1ccc(C2CC(=O)Nc3cc(OC)c(NS(C)(=O)=O)cc32)o1 (configuration not stated) | -3.63%
COc1ccc(CN(Cc2cnn(C)c2)CC(C)C)cn1 | -6.19%
O=C(c1cc2ccccc2[nH]c1=O)N1CCC2(CCCNC2)C1 (configuration not stated) | -4.47%
Cc1cccc(-n2nc(CC(C)C)nc2CS(C)(=O)=O)c1 | -2.84%
CCC(C)N(Cc1c[nH]c(C)n1)Cc1ccccc1Cl (configuration not stated) | -8.23%
CSCCC(=O)N1C[C@@H](C)[C@](O)(C(C)C)C1 | -9.47%
CCC[C@H]1CN(C2CCOCC2)C[C@@H]1NC(=O)CCn1ccnc1C | 3.94%
Cc1cnc(CNC(=O)CCCn2cnc3ccccc3c2=O)cn1 | 6.51%
CCN(C)S(=O)(=O)NC(C)c1cnc(N(C)C2CCCCC2)nc1C (configuration not stated) | -4.92%
Cc1ncc(C(=O)N2CCC(N3CCc4ccccc4C3)CC2)c(O)n1 | 2.23%
Cn1nc(CO)c2c1CCN(c1ncnc3c1CCNCC3)C2 | -6.13%
O=C1[C@@H]2CN(c3ncccc3Cl)C[C@]2(C(=O)O)CN1CC1CC1 | -7.05%
Cn1cc(CN2CCC(CCC(=O)Nc3ccccc3Cl)CC2)cn1 | 4.76%
O=C(Cc1ccc(F)cc1Cl)N1CC[C@H](CO)[C@@H](O)C1 | 9.17%
COC[C@@]12CC[C@@H](N3CCOCC3)C[C@H]1CCN(c1ncccc1C)C2 | -0.155%
CCNc1ccnc(NC2CCN(C(=O)c3ccc(C)cc3)CC2)n1 | -13.3%
Cc1cc(C)cc(N2CCN(Cc3cccnc3)CC2=O)c1 | -7.86%

SMILES | cytotoxicity at 70.5 h
Cc1ccsc1-c1cc(C(=O)O)cc(S(=O)(=O)NCc2ccccn2)c1 | -9.5%
CSc1cccc(CN(C)C(=O)Nc2nc(C)n(C)n2)c1 | -3.93%
CCn1cc(CNC2CCN(c3cccc(C)c3C)CC2)cn1 | -6.01%
CNc1nc(C)c(C(=O)N2C[C@H]3CC[C@@H]2CN(c2cnccn2)C3)s1 | -6.37%
CCc1c(C)nc(C)nc1N1C[C@@H](CN(CC)CCO)[C@@H](CO)C1 | 10.3%
Cc1nc(-c2cccc(N3CCC(NC4CCOCC4)CC3)c2)cs1 | -3.92%
c1ccc(Cn2cc(CNc3ncnc4c3CCNCC4)cn2)cc1 | -15%
CCCC1(NC(=O)C(c2ccc(F)cc2)N(C)C)CC1 (configuration not stated) | 10.6%
Cc1c(NCc2cccnc2)cccc1C(=O)N1CCC(N(C)C)C1 (configuration not stated) | -5.39%
Cc1cc(C(F)(F)F)cc(N2C[C@@H](CN3CCOCC3)[C@@H](CO)C2)n1 | -16.2%
COc1ccccc1CC(=O)N1CCC(OCc2cccnc2)CC1 | -13.8%
O=S1(=O)COCCN1Cc1ccc(F)c(F)c1 | -7.08%
CCc1oc(C(=O)NCCNS(C)(=O)=O)cc1CN1CCCC1 | 11.7%
CC(=O)N[C@@H](C)C(=O)NCc1cccnc1Oc1ccccc1F | -11.6%
CCC[C@@H]1CN(Cc2ccccc2C#N)C[C@H]1NC(C)=O | -1.98%
CN(Cc1cccc(-n2cccn2)c1)C(=O)c1ccnc(N)c1 | 3.21%
N#Cc1nccnc1N1CCC(C(O)c2cccs2)CC1 (configuration not stated) | 10.4%
Cc1ccc2c(c1)SCC(=O)N2CC(=O)N1CCCC1c1cc(C)no1 (configuration not stated) | 12.8%
CN(c1ccc(C(=O)NCCCN2CCCC2)c(Cl)c1)S(C)(=O)=O | 17.4%
O=C1CCc2cc(S(=O)(=O)NCc3cc4n(n3)CCCNC4)ccc2N1 | -12.2%
Cc1nc(N2CCN(C(=O)c3ccccc3)CC2)cc(-n2ccnc2)n1 | 10.7%
COc1ccc(C)cc1-n1cnnc1C1CCOCC1 | -2.32%
O=c1[nH]c(NC2CCCC2)nc2nccc(-c3ccsc3)c12 | -4.5%

SMILES | cytotoxicity at 70.5 h
Cc1nc2c(c(NCCNC(=O)C(C)C)n1)Cc1ccccc1OC2 | -6.01%
CC(C)Nc1cc(N2CCC(n3cc(C4CCCC4)nn3)CC2)ncn1 | -8.81%
Cc1cc(C)n(-c2ccc(NCCNS(=O)(=O)c3ccccc3)nn2)n1 | -5.4%
CCCOC1CCCN(C(=O)c2cnc(-c3csc(C)n3)nc2O)C1 (configuration not stated) | -6.67%
CN(C(=O)c1ccc(C2CCCO2)s1)C1CCS(=O)(=O)CC1 (configuration not stated) | 2.73%
COc1ccc(-c2ccccc2CCN)c(OC)c1OC | 6.2%
CCc1ccccc1OCCCN(C)C(=O)C1CCCN1C(N)=O (configuration not stated) | -8.96%
CN(C)C(=O)C1(Oc2ccc(Cl)cc2)CCNCC1 | -3.42%
O=C(Cc1n[nH]c(-c2cncc(Br)c2)n1)NCc1ccncc1 | -9.88%
CSc1ccccc1C(=O)Nc1ccc(OC2CCN(C)CC2)cc1 | 17.4%
CCC(NC(=O)C1CCN(S(C)(=O)=O)CC1)c1ccc(C)cc1C (configuration not stated) | -4.73%
CCCC1(NC(=O)C(c2ccccc2C)N(C)C)CC1 (configuration not stated) | -5.65%
C/C=C(\C)CN1C[C@H](NC(=O)c2cnc(O)cn2)C[C@H]1C(=O)NCC | -9.9%
O=C(NCCc1nccs1)c1cn(CCN2CCNCC2)nn1 | -2.39%
CC(Oc1ccc(F)cc1F)C(=O)N1CCC2(CCCO2)CC1 (configuration not stated) | 27%
CCN(Cc1ccncc1)C(=O)c1cn(CCCc2ccccc2)nn1 | -12.5%
Cc1ccc(-c2ccc(Cl)nn2)cc1S(N)(=O)=O | -7.63%
CCC(C(=O)NCc1cccnc1)N(c1cccc(C)c1)S(C)(=O)=O (configuration not stated) | 6.87%
CC(C)Cn1cncc1-c1nc2c([nH]1)CC(C)(C)CNC2=O | 4.26%
CCc1ccccc1OCCN(C)C(=O)CN1CCCC1 | -6.67%
